Assay results reported in patent publication US20030180723A1, “Cloning of novel gene sequences expressed and repressed during winter dormancy in the apical buds of tea ( Camellia sinensis L. (O.) Kuntze) bush” (priority 2001, published 2003).

Tested on: dormant apical buds of tea bush
Assay: Forced break of bud dormancy by GA3 on a winter-dormant tea bush
Type: in vivo, Camellia sinensis L. (O.) Kuntze
Conditions: out of 20 buds; 5 μM in 5% ethanol, applied onto each dormant bud with a paint brush at least 4 times on the same day, December; bud length and perimeter as indicator of growth
Description: Above Example 6 identified 4 differentially expressed genes cloned by us. To further correlate these differentially expressed genes with the phenomenon of dormancy, the dormant bush during winter month was forced to break bud dormancy using a plant growth regulator gibberrellic acid (hereinafter referred to GA3). GA3 was dissolved in 5% ethanol to yield a final concetration of 5 μM. The solution was applied onto each dormant bud with the help of a paint brush at least 4 times on the same day during the month of December. Bud length and its perimeter was recorded regularly as an indicator of its growth. […] These were termed as forced ND apical buds. These were collected and stored as mentioned in Example 1 and used for the purpose of RNA isolation to be used in northern analysis.

## C=C1C[C@]23C[C@@]1(O)CC[C@H]2[C@@]12C=C[C@H](O)[C@@](C)(C(=O)O1)[C@H]2[C@@H]3C(=O)O [GA3, gibberrellic acid]
  buds that showed increase in growth (dormancy break): 10 buds
